Columns and labels:
A549 cells = assay: Cell viability by MTT method in A549 cells; type: cell-based; design: concentration or dose not given beside the values; settings: 72 hours treatment
AIMP2-DX2 = biological target: T1, AIMP2-DX2 (Homo sapiens, UniProt Q13155); assay: DX2-nanoluciferase assay (DX2 expression change) in transfected A549 cells; settings: for inhibition at 40 µM: A549, 4 h, read-out: DX-Nanoluciferase activity (40 μM), 40 μM, 4 hours treatment, A549 cells transfected with nanoluciferase-DX2
T1 sequence (Q13155 1-251 isoform Q13155-2): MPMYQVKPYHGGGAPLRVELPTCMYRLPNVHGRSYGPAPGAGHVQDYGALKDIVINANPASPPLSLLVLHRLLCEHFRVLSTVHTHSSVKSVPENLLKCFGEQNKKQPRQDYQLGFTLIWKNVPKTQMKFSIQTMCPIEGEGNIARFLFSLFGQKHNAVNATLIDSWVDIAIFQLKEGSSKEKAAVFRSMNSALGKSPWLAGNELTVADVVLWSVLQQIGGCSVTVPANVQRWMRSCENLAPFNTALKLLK
Experimental: After cloning DX2 into a plasmid expressing nanoluciferase, the plasmid was transfected into A549 cells. Transfected cells were seeded 1×10^4 per well in a 96-well plate and stabilized for 12 hours. […] Cell viability was measured by the MTT method after 72 hours of treatment with each concentration of the compound in A549 cells.

[1] = inhibitory effect on AIMP2-DX2 expression

O=C(Nc1ccc(N2CCOCC2)cc1)[C@H](Cc1c[nH]c2ccccc12)NS(=O)(=O)c1ccc(Br)cc1 [Compound 79, (S)-2-(4-Bromophenylsulfonamido)-3-(1H-indol-3-yl)-N-(4-morpholinophenyl)propanamide]
Cell Viability (% inhibition) (A549) (A549 cells): 78.31 ± 1.91% | inhibition at 40 µM (AIMP2-DX2; [1]): 30.6 ± 15.3%

COc1ccc(S(=O)(=O)N[C@@H](Cc2c[nH]c3ccccc23)C(=O)Nc2ccc(N3CCOCC3)cc2)cc1 [Compound 80, (S)-3-(1H-indol-3-yl)-2-(4-methoxyphenylsulfonamido)-N-(4-morpholinophenyl)propanamide]
Cell Viability (% inhibition) (A549) (A549 cells): 38.64 ± 1.03% | inhibition at 40 µM (AIMP2-DX2; [1]): 44.9 ± 13.3%

CC(C)c1ccc(S(=O)(=O)N[C@@H](Cc2c[nH]c3ccccc23)C(=O)Nc2ccc(N3CCOCC3)cc2)cc1 [Compound 81, (S)-3-(1 Indol-3-yl)-2-(4-isopropylphenylsulfonamido)-N-(4 morpholinophenyl)propanamide]
Cell Viability (% inhibition) (A549) (A549 cells): 73.98 ± 0.39% | DX-Nanoluciferase activity (40 μM) (AIMP2-DX2; 40 μM, 4 hours treatment, A549 cells transfected with nanoluciferase-DX2, inhibitory effect on AIMP2-DX2 expression): 77.74 ± 6.75

COc1ccc(-c2csc(NC(=O)[C@H](Cc3c[nH]c4ccccc34)NS(=O)(=O)c3ccc(C(C)C)cc3)n2)cc1 [Compound 82, (S)-3-(1H-indol-3-yl)-2-(4-isopropylphenylsulfonamido)-N-(4-(4-methoxyphenyl)thiazol-2-yl)propanamide]
Cell Viability (% inhibition) (A549) (A549 cells): 96.64 ± 0.09% | inhibition at 40 µM (AIMP2-DX2; [1]): 29.3 ± 2.7%

Cc1ccc(S(=O)(=O)N[C@@H](Cc2c[nH]c3ccccc23)C(=O)Nc2nc(C)cs2)cc1 [Compound 83, (S)-3-(1H-indol-3-yl)-2-(4-methylphenylsulfonamido)-N-(4-methylthiazol-2-yl)propanamide]
Cell Viability (% inhibition) (A549) (A549 cells): 97.43 ± 2.01% | inhibition at 40 µM (AIMP2-DX2; [1]): 17.4 ± 3.23%

Cc1ccc(S(=O)(=O)N[C@@H](Cc2c[nH]c3ccccc23)C(=O)Nc2nc3ccccc3s2)cc1 [Compound 84, (S)—N-(benzo[d]thiazol-2-yl)-3-(1H-indol-3-yl)-2-(4-methylphenylsulfonamido)propanamide]
Cell Viability (% inhibition) (A549) (A549 cells): 20.93 ± 11.89% | inhibition at 40 µM (AIMP2-DX2; [1]): -15.8 ± 6.29%

O=C(O)[C@H](Cc1c[nH]c2ccccc12)NS(=O)(=O)c1ccc(Br)cc1 [Compound 85, (S)-2-(4-Bromophenylsulfonamido)-3-(1H-indol-3-yl)propanoic acid]
Cell Viability (% inhibition) (A549) (A549 cells): 10.28 ± 3.54% | inhibition at 40 µM (AIMP2-DX2; [1]): 20.2 ± 1.65%

Cc1ccc(S(=O)(=O)N[C@@H](CC(C)C)C(=O)Nc2ncc(N3CCOCC3)s2)cc1 [Compound 86, (S)-4-Methyl-2-(4-methylphenylsulfonamido)-N-(5-morpholinothiazol-2-yl)pentanamide]
Cell Viability (% inhibition) (A549) (A549 cells): 20.70 ± 1.43% | inhibition at 40 µM (AIMP2-DX2; [1]): 37.7 ± 6.09%

COc1ccc(-c2nnc(NC(=O)[C@H](CC(C)C)NS(=O)(=O)c3ccc(C)cc3)s2)cc1 [Compound 87, (S)—N-(5-(4-methoxyphenyl)-1,3,4-thiadiazol-2-yl)-4-methyl-2-(4-methylphenylsulfonamido)pentanamide]
Cell Viability (% inhibition) (A549) (A549 cells): 36.61 ± 3.85% | inhibition at 40 µM (AIMP2-DX2; [1]): 50.2 ± 7.05%

COc1ccc(-c2cc(NC(=O)[C@H](CC(C)C)NS(=O)(=O)c3ccc(C)cc3)no2)cc1 [Compound 88, (S)—N-(5-(4-methoxyphenyl)isoxazol-3-yl)-4-methyl-2-(4-methylphenylsulfonamido)pentanamide]
Cell Viability (% inhibition) (A549) (A549 cells): 46.96 ± 4.60% | inhibition at 40 µM (AIMP2-DX2; [1]): 57 ± 8.83%

COc1ccc(-c2cc(NC(=O)[C@H](CC(C)C)NS(=O)(=O)c3ccc(C)cc3)on2)cc1 [Compound 89, (S)—N-(3-(4-methoxyphenyl)isoxazol-5-yl)-4-methyl-2-(4-methylphenylsulfonamido)pentanamide]
Cell Viability (% inhibition) (A549) (A549 cells): 98.73 ± 0.92% | inhibition at 40 µM (AIMP2-DX2; [1]): 47.5 ± 13.3%

Cc1ccc(S(=O)(=O)N[C@@H](CC(C)C)C(=O)Nc2nc(-c3ccc(C(F)(F)F)cc3)cs2)cc1 [Compound 90, (S)-4-Methyl-2-(4-methylphenylsulfonamido)-N-(4-(4-(trifluoromethyl)phenyl)thiazol-2-yl)pentanamide]
Cell Viability (% inhibition) (A549) (A549 cells): 86.36 ± 0.64% | inhibition at 40 µM (AIMP2-DX2; [1]): 65.4 ± 4.13%

COc1ccc(-c2csc(NC(=O)[C@H](CC(C)C)NS(=O)(=O)c3ccc(C)cc3)n2)cc1OC [Compound 91, (S)—N-(4-(3,4-dimethoxyphenyl)thiazol-2-yl)-4-methyl-2-(4-methylphenylsulfonamido)pentanamide]
Cell Viability (% inhibition) (A549) (A549 cells): 87.36 ± 2.13% | inhibition at 40 µM (AIMP2-DX2; [1]): 16.4 ± 8.65%

Cc1ccc(S(=O)(=O)N[C@@H](CC(C)C)C(=O)Nc2nc(-c3ccc(F)cc3Br)cs2)cc1 [Compound 92, (S)—N-(4-(2-bromo-4-fluorophenyl)thiazol-2-yl)-4-methyl-2-(4-methylphenylsulfonamido)pentanamide]
Cell Viability (% inhibition) (A549) (A549 cells): 100.05 ± 1.22% | inhibition at 40 µM (AIMP2-DX2; [1]): 31.5 ± 6.84%

Cc1ccc(S(=O)(=O)N[C@@H](CC(C)C)C(=O)Oc2ccc(-c3csc(N)n3)cc2)cc1 [Compound 93, (S)-4-(2-Aminothiazol-4-yl)phenyl 4-methyl-2-(4-methylphenylsulfonamido)pentanoate]
Cell Viability (% inhibition) (A549) (A549 cells): 48.85 ± 9.03% | inhibition at 40 µM (AIMP2-DX2; [1]): 22.5 ± 3.96%

Cc1ccc(S(=O)(=O)N[C@@H](CC(C)C)C(=O)Nc2nc(-c3ccc(F)cc3)cs2)cc1 [Compound 94, (S)—N-(4-(4-fluorophenyl)thiazol-2-yl)-4-methyl-2-(4-methylphenylsulfonamido)pentanamide]
Cell Viability (% inhibition) (A549) (A549 cells): 101.42 ± 0.79% | inhibition at 40 µM (AIMP2-DX2; [1]): 11.5 ± 7.25%

Cc1ccc(S(=O)(=O)N[C@@H](CC(C)C)C(=O)Nc2nc(-c3ccc(OC(F)(F)F)cc3)cs2)cc1 [Compound 95, (S)-4-Methyl-2-(4-methylphenylsulfonamido)-N-(4-(4-(trifluoromethoxy)phenyl)thiazol-2-yl)pentanamide]
Cell Viability (% inhibition) (A549) (A549 cells): 92.97 ± 0.09% | inhibition at 40 µM (AIMP2-DX2; [1]): 22.6 ± 5.29%

Cc1ccc(S(=O)(=O)N[C@@H](CC(C)C)C(=O)Nc2nc(-c3ccc(O)cc3)cs2)cc1 [Compound 96, (S)—N-(4-(4-hydroxyphenyl)thiazol-2-yl)-4-methyl-2-(4-methylphenylsulfonamido)pentanamide]
Cell Viability (% inhibition) (A549) (A549 cells): 93.07 ± 5.89% | inhibition at 40 µM (AIMP2-DX2; [1]): 36.8 ± 9.16%

Cc1ccc(-c2csc(NC(=O)[C@H](CC(C)C)N(C)S(=O)(=O)c3ccccc3)n2)cc1 [Compound 97, (S)-4-Methyl-2-(methylphenylsulfonamido)-N-(4p-tolylthiazol-2-yl)pentanamide]
Cell Viability (% inhibition) (A549) (A549 cells): 67.10 ± 7.93% | inhibition at 40 µM (AIMP2-DX2; [1]): 15.1 ± 2.59%

Cc1ccc(S(=O)(=O)N[C@@H](Cc2ccc(OS(=O)(=O)c3ccc(C)cc3)cc2)C(=O)Nc2ccc(N3CCOCC3)cc2)cc1 [Compound 101, (S)-4-(2-(4-Methylphenylsulfonamido)-3-(4-morpholinophenylamino)-3-oxopropyl)phenyl 4-methylbenzenesulfonate]
Cell Viability (% inhibition) (A549) (A549 cells): 35.10 ± 5.95% | inhibition at 40 µM (AIMP2-DX2; [1]): 10.9 ± 4.88%

COc1ccc(-c2csc(NC(=O)[C@H](Cc3c[nH]cn3)NS(=O)(=O)c3ccc(Br)cc3)n2)cc1 [Compound 102, (S)-2-(4-Bromophenylsulfonamido)-3-(1H-Imidazol-4-yl)-N-(4-(4-methoxyphenyl)thiazol-2-yl)propanamide]
Cell Viability (% inhibition) (A549) (A549 cells): 91.03 ± 6.44% | inhibition at 40 µM (AIMP2-DX2; [1]): 27.2 ± 5.87%

CON(C)C(=O)[C@H](CC(C)C)NS(=O)(=O)c1ccc(C)cc1 [Compound 103, (S)—N-methoxy-N,4-dimethyl-2-(4-methylphenylsulfonamido)pentanamide]
Cell Viability (% inhibition) (A549) (A549 cells): −5.00 ± 6.69% | inhibition at 40 µM (AIMP2-DX2; [1]): 63.7 ± 14.3%

CON(C)C(=O)[C@H](Cc1c[nH]c2ccccc12)NS(=O)(=O)c1ccc(C)cc1 [Compound 104, (S)-3-(1H-indol-3-yl)-N-methoxy-N-methyl-2-(4-methylphenylsulfonamido)propanamide]
Cell Viability (% inhibition) (A549) (A549 cells): 6.26 ± 7.67% | inhibition at 40 µM (AIMP2-DX2; [1]): 64.3 ± 5.96%

Cc1ccc(S(=O)(=O)N[C@@H](Cc2c[nH]c3ccccc23)C(=O)N2CCOCCOCCOCC2)cc1 [Compound 105, (S)—N-(3-(1H-indol-3-yl)-1-oxo-1-(1,4,7-trioxa-10-azacyclododecan-10-yl)propan-2-yl)-4-methylbenzenesulfonamide]
Cell Viability (% inhibition) (A549) (A549 cells): 29.36 ± 7.43% | inhibition at 40 µM (AIMP2-DX2; [1]): 57.1 ± 1.56%

CC(C)(C)c1ccc(S(=O)(=O)N[C@@H](Cc2c[nH]c3ccccc23)C(=O)Nc2ccc(N3CCOCC3)cc2)cc1 [Compound 106, (S)-2-(4-tert-Butylphenylsulfonamido)-3-(1H-indol-3-yl)-N-(4-morpholinophenyl)propan amide]
Cell Viability (% inhibition) (A549) (A549 cells): 17.13 ± 5.35% | DX-Nanoluciferase activity (10 μM) (AIMP2-DX2; 10 μM, 4 hours treatment, A549 cells transfected with nanoluciferase-DX2): 68.14 ± 9.57 (10 μM)

O=C(Nc1nc(-c2ccccc2Cl)cs1)[C@H](Cc1c[nH]c2ccccc12)NS(=O)(=O)c1ccc(Br)cc1 [Compound 107, (S)-2-(4-Bromophenylsulfonamido)-N-(4-(2-chlorophenyl)thiazol-2-yl)-3-(1H-indol-3-yl)propanamide]
Cell Viability (% inhibition) (A549) (A549 cells): 59.19 ± 2.09% | inhibition at 40 µM (AIMP2-DX2; [1]): 37 ± 12.5%

O=C(Nc1nccs1)[C@H](Cc1c[nH]c2ccccc12)NS(=O)(=O)c1ccc(Br)cc1 [Compound 109, (S)-2-(4-Bromophenylsulfonamido)-3-(1H-indol-3-yl)-N-(thiazol-2-yl)propanamide]
Cell Viability (% inhibition) (A549) (A549 cells): 4.14 ± 1.04% | inhibition at 40 µM (AIMP2-DX2; [1]): 57.5 ± 9.11%

Cc1cnc(NC(=O)[C@H](Cc2c[nH]c3ccccc23)NS(=O)(=O)c2ccc(Br)cc2)s1 [Compound 110, (S)-2-(4-Bromophenylsulfonamido)-3-(1H-indol-3-yl)-N-(5-methylthiazol-2-yl)propanamide]
Cell Viability (% inhibition) (A549) (A549 cells): 8.95 ± 3.66% | inhibition at 40 µM (AIMP2-DX2; [1]): 46.7 ± 7.18%
